According to patent US20020026069A1 (priority 1998, published 2002):

What was measured:
[1] = Stability of the solid on storage or heating; assay type: physicochemical
Hygroscopicity = assay type: physicochemical
[2] = cited from earlier work
[3] = cited from earlier work; remark: listed apart in the source
Particle size = assay type: physicochemical; settings: free base obtained by this process
Solubility = assay type: physicochemical
[4] = Stability in aqueous solution; assay type: physicochemical; settings: pH 2-3
[5] = incubation for 6 months at 40° C.; composition produced by the Milman process (U.S. Pat. No. 5,354,885); cited from earlier work
[6] = synthesized by the methods of GB 1,364,505 / U.S. Pat. No. 3,803,120
[7] = free base obtained by this process

SMILES	stability [1, 6]	hygroscopicity (Hygroscopicity; [6])	solubility [2]	half-life in vivo [3]	stability [1, 7]	sensitivity to heat ([1]; produces cyclic levodopa and levodopa-levodopa ethyl ester)	hygroscopicity (Hygroscopicity; [7])	average particle size (Particle size)	particle size range (Particle size)	solubility in water (Solubility)	stability in the solution [4]	L-DOPA ethyl ester remaining after incubation [5]
CCOC(=O)[C@@H](N)Cc1ccc(O)c(O)c1.Cl [L-DOPA ethyl ester hydrochloride salt, L-DOPA ethyl ester hydrochloride, reference compound]	not stable	hygroscopic										
N[C@@H](Cc1ccc(O)c(O)c1)C(=O)O [L-DOPA]			very poor solubility	short half-life								
CCOC(=O)[C@@H](N)Cc1ccc(O)c(O)c1 [L-DOPA ethyl ester]	not stable				stable	very sensitive to heat	non-hygroscopic	less than 60 μ	18-180 μ	soluble to a certain extent	stable	at least 97 % by weight
